Measured values: US20150051186A1, “ARYL AZETIDINE DERIVATIVES AS SPHINGOSINE-1 PHOSPHATE RECEPTORS MODULATORS” (Allergan, Inc., priority 2013, published 2015)
pEC50: −log10 of the molar value.

Molecular target: T1, human S1P1 receptor (Homo sapiens, UniProt P21453)
T1 construct: expressed in transfected cells; membranes were used
Experiment: GTP γ35S binding assay for S1P1 activity
Type: biochemical
Conditions: membranes of cells stably expressing the S1P1 receptor, agonist potency
Experimental: Compounds were synthesized and tested for S1P1 activity using the GTP γ^35S binding assay. These compounds may be assessed for their ability to activate or block activation of the human S1P1 receptor in cells stably expressing the S1P1 receptor.
GTP γ^35S binding was measured in the medium containing (mM) HEPES 25, pH 7.4, MgCl2 10, NaCl 100, dithiothreitol 0.5, digitonin 0.003%, 0.2 nM GTP γ^35S, and 5 μg membrane protein in a volume of 150 μl. Test compounds were included in the concentration range from 0.08 to 5,000 nM unless indicated otherwise. Membranes were incubated with 100 μM 5′-adenylylimidodiphosphate for 30 min, and subsequently with 10 μM GDP for 10 min on ice. Drug solutions and membrane were mixed, and then reactions were initiated by adding GTP γ^35S and continued for 30 min at 25° C. Reaction mixtures were filtered over Whatman GF/B filters under vacuum, and washed three times with 3 mL of ice-cold buffer (HEPES 25, pH7.4, MgCl2 10 and NaCl 100). Filters were dried and mixed with scintillant, and counted for ^35S activity using a β-counter. Agonist-induced GTP γ^35S binding was obtained by subtracting that in the absence of agonist. Binding data were analyzed using a non-linear regression method. In case of antagonist assay, the reaction mixture contained 10 nM […] in the presence of test antagonist at concentrations ranging from 0.08 to 5000 nM.

T1 sequence (P21453 whole entry): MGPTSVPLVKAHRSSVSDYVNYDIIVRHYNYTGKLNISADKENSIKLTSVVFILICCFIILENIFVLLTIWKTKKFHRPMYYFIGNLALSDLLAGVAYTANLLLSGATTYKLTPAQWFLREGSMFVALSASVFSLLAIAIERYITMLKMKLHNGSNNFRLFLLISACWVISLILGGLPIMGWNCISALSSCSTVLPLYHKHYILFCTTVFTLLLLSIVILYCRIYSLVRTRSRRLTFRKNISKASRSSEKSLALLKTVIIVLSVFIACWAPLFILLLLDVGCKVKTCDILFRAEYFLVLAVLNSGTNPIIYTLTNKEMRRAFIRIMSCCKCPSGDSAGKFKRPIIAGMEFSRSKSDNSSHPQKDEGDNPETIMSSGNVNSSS

| pEC50 | SMILES |
| --- | --- |
| 6.89 | O=C(O)C1CN(CCCCCCCCC(Cc2ccccc2)c2cccc(Cl)c2)C1 (stereo not shown) [Compound 1, 1-[9-(3-Chlorophenyl)-10-phenyldecyl]azetidine-3-carboxylic acid] |
| 7.21 | Cc1ccc(CC(CCCCCCCN2CC(C(=O)O)C2)c2cc(F)cc(F)c2)cc1C (stereo not shown) [Compound 2, 1-[8-(3,5-Difluorophenyl)-9-(3,4-dimethylphenyl)nonyl]azetidine-3-carboxylic acid] |
| 6.10 | Cc1ccc(CC(CCCCCCN2CC(C(=O)O)C2)c2cccc(Cl)c2)cc1C (stereo not shown) [Compound 3, 1-[7-(3-Chlorophenyl)-8-(3,4-dimethylphenyl)octyl]azetidine-3-carboxylic acid] |
| 6.19 | Cc1ccc(CC(CCCCCCCN2CC(C(=O)O)C2)c2cccc(Cl)c2)cc1C (stereo not shown) [Compound 4, 1-[8-(3-Chlorophenyl)-9-(3,4-dimethylphenyl)nonyl]azetidine-3-carboxylic acid] |
